{
  "source": "patent US4613607A",
  "about": "“Medicaments based on derivatives of 1-(4-quinolyl)-2-(4-piperidyl)-ethanol or 1-(4-quinolyl)-3-(4-piperidyl)-propanol” (Pharmuka Laboratoires, priority 1980, dated 1986)",
  "key": {"[1]": {"tested_on": "ventricular arhythmia caused by the aconitine", "experiment": "Aconitine test on the rat (delay of ventricular arhythmia caused by perfused aconitine)", "assay_type": "in vivo", "conditions": "iv, read-out: Antiarhythmic activity, aconitine test on the rat, ED50", "experimental": "The principle of the method rests on the induction time of the ventricular arhythmia caused by the aconitine which is slowly fed by perfusion into rats. An antiarhythmic substance retards the appearance of the arhythmia and the delay is proportional to the activity of the substance.\nGroups of 5 male rats were used. An individual anesthesia was effected (10% urethane: 1 g/kg/ip) in order to permit a catheterization of the vein of the penis. The electrocardiogram was recorded. At time T=0 the substance studied was injected in the form of an aqueous solution, at the rate of 2.5 ml of solution per kg in 30 seconds. At time T=60 seconds, say 30 seconds after the end of the injection, the aconitine was perfused at the rate of 20 μg per minute up to the appearance of supraventricular extra systoles. The time of perfusion of the aconitine was noted.\nThe results are expressed by an ED50, which is the dose of product, in mg/kg, increasing by 50% the time of perfusion of the aconitine in comparison with the perfusion time of aconitine for the control animals."}, "[2]": {"tested_on": "fibrillations caused by an inhalation of chloroform", "experiment": "Chloroform test on the mouse (protection against fibrillations caused by inhalation of chloroform)", "assay_type": "in vivo", "conditions": "ip, 20 min, read-out: Antiarhythmic activity, chloroform test on the mouse, AD50", "experimental": "The product to be tested was administered intraperitoneally 20 minutes before chloroformic intoxication and the possible protection against the arhythmia was shown by recording of the electrocardiogram, which was effected from the appearance of the apnoea. The activity of the products is expressed by an AD50 (dose of product in mg/kg which protects 50% of the animals)."}, "[3]": {"experiment": "Acute toxicity to mice, intravenous", "conditions": "in vivo, male mouse DC1, i.v., 3 days observation", "text": "Toxicological properties of the compounds of formula (I): […]\nThe acute toxicities of the compounds of formula (I) (see results in the above Table) have been determined on the male mouse DC1 (Charles River), by the intravenous method. The LD50 have been calculated, after 3 days observation, by the cumulative method of J. J. Reed and H. Muench (Amer. J. Hyg., 27, 493, 1938)."}, "[4]": {"conditions": "dose which protects 50% of the animals, intraperitoneal, 20 minutes before chloroform"}},
  "note": "Where a name gives a salt, the structure may show the parent alone. Read-outs that look alike come from different tables or passages of the source.",
  "data": [
    {"smiles": "C=C[C@H]1CNCC[C@H]1CCC(O)c1ccnc2ccc(OC)cc12", "note": "(mixture of isomers) [Example 5, Mixture of 3-[3(R)-ETHENYL 4(R)-PIPERIDYL]-1-(6-METHOXY-4-QUINOLYL)-1-(R)-PROPANOL and 3-[3(R)-ETHENYL 4(R)-PIPERIDYL]-1-(6-METHOXY-4-QUINOLYL)-1(S)-PROPANOL]", "values": [
      {"measurement": "ED50", "setting": "[1]", "value": 0.44, "unit": "mg/kg"},
      {"measurement": "ED50", "setting": "[2]", "value": 3, "unit": "mg/kg"},
      {"measurement": "LD50 at 72 h", "setting": "[3]", "value": 21.5, "unit": "mg/kg"}
    ]},
    {"smiles": "C=C[C@H]1CNCC[C@H]1CC[C@H](O)c1ccnc2ccc(OC)cc12", "note": "[Example 6, 3-[3(R)-ETHENYL 4(R)-PIPERIDYL]-1-(6-METHOXY-4-QUINOLYL)-1(S)-PROPANOL]", "values": [
      {"measurement": "ED50", "setting": "[1]", "value": 0.43, "unit": "mg/kg"},
      {"measurement": "ED50", "setting": "[2]", "value": 3, "unit": "mg/kg"},
      {"measurement": "LD50 at 72 h", "setting": "[3]", "value": 20.3, "unit": "mg/kg"}
    ]},
    {"smiles": "C=C[C@H]1C[N@@]2CC[C@H]1C[C@@H]2[C@@H](O)c1ccnc2ccc(OC)cc12", "note": "[Quinidine sulfate, reference compound]", "values": [
      {"measurement": "ED50", "setting": "[1]", "value": 7.5, "unit": "mg/kg"},
      {"measurement": "ED50", "setting": "[2]; [4]", "value": 18, "unit": "mg/kg"},
      {"measurement": "LD50 at 72 h", "setting": "[3]", "value": 60, "unit": "mg/kg"}
    ]},
    {"smiles": "C=C[C@H]1CNCC[C@H]1CC[C@@H](O)c1ccnc2ccc(OC)cc12", "note": "[Example 7, 3-[3(R)-ETHENYL 4(R)-PIPERIDYL]-1-(6-METHOXY-4-QUINOLYL)-1(R)-PROPANOL]", "values": [
      {"measurement": "ED50", "setting": "[1]", "value": 0.45, "unit": "mg/kg"},
      {"measurement": "ED50", "setting": "[2]", "value": 3, "unit": "mg/kg"},
      {"measurement": "LD50 at 72 h", "setting": "[3]", "value": 33, "unit": "mg/kg"}
    ]},
    {"smiles": "C=C[C@@H]1CN(C)CC[C@H]1CC[C@H](O)c1ccnc2ccc(OC)cc12", "note": "[9 (3(S)-ethenyl isomer)]", "values": [
      {"measurement": "ED50", "setting": "[1]", "value": 1.4, "unit": "mg/kg"},
      {"measurement": "ED50", "setting": "[2]; [4]", "value": "> 5", "unit": "mg/kg"},
      {"measurement": "LD50 at 72 h", "setting": "[3]", "value": 33, "unit": "mg/kg"}
    ]},
    {"smiles": "C=C[C@H]1CN(C)CC[C@H]1CC[C@H](O)c1ccnc2ccc(OC)cc12", "note": "[9 (3(R)-ethenyl isomer)]", "values": [
      {"measurement": "ED50", "setting": "[1]", "value": 1, "unit": "mg/kg"},
      {"measurement": "ED50", "setting": "[2]; [4]", "value": 5, "unit": "mg/kg"},
      {"measurement": "LD50 at 72 h", "setting": "[3]", "value": 19, "unit": "mg/kg"}
    ]},
    {"smiles": "CC(C)(C)c1cc(C(O)CCC2CCNCC2)c2ccccc2n1", "note": "(racemic) [Example 12, 1-[2-(1,1-DIMETHYL-ETHYL)-4-QUINOLYL]-3-(4-PIPERIDYL)-1-PROPANOL]", "values": [
      {"measurement": "ED50", "setting": "[1]", "value": 0.8, "unit": "mg/kg"},
      {"measurement": "LD50 at 72 h", "setting": "[3]", "value": 26, "unit": "mg/kg"}
    ]},
    {"smiles": "CC[C@H]1CNCC[C@H]1CC[C@@H](O)c1ccnc2ccc(OC)cc12", "note": "[8 (1(R)-propanol isomer)]", "values": [
      {"measurement": "ED50", "setting": "[1]", "value": 0.65, "unit": "mg/kg"},
      {"measurement": "ED50", "setting": "[2]; [4]", "value": 2.5, "unit": "mg/kg"},
      {"measurement": "LD50 at 72 h", "setting": "[3]", "value": 29, "unit": "mg/kg"}
    ]},
    {"smiles": "OC(CCC1CCNCC1)c1cc(-c2ccccc2)nc2ccccc12", "note": "(racemic) [Example 4, 1-(2-PHENYL-4-QUINOLYL)-3-(4-PIPERIDYL)-1-PROPANOL]", "values": [
      {"measurement": "ED50", "setting": "[1]", "value": 1.22, "unit": "mg/kg"},
      {"measurement": "ED50", "setting": "[2]", "value": 2.5, "unit": "mg/kg"},
      {"measurement": "LD50 at 72 h", "setting": "[3]", "value": 21, "unit": "mg/kg"}
    ]},
    {"smiles": "CC[C@H]1CNCC[C@H]1CC[C@H](O)c1ccnc2ccc(OC)cc12", "note": "[8 (1(S)-propanol isomer)]", "values": [
      {"measurement": "ED50", "setting": "[1]", "value": 0.58, "unit": "mg/kg"},
      {"measurement": "ED50", "setting": "[2]; [4]", "value": 2.5, "unit": "mg/kg"},
      {"measurement": "LD50 at 72 h", "setting": "[3]", "value": 17, "unit": "mg/kg"}
    ]}
  ]
}
